Literature values, collected in publication PMC3145338 (Journal of the American Chemical Society, 2011).
pKd: −log10 of the molar value. Like-named read-outs stand apart in the source and are kept apart here. Marks after values point to notes of the source that are not given here.

Details: BCA; for pKd: read-out: Kd^surf
[1] = SAM ligand 2, χ = 0.05, ref [Mrskich, 1995]
[2] = SAM ligand 2, ref [Lahiri, 1999a]
[3] = SAM ligand 2, ref [Lahiri, 1999b]

pKd [1]: 6.59 | pKd [2]: 6.82 | pKd [3]: 6.25
Substance: BCA: bovine carbonic anhydrase
koff^surf [1]: 5.4 ^e 10^−3 s^−1 | kon^surf [1]: 1.9 ^e 10^4 M^−1 s^−1 | ΔG°surf [1]: −9.0 ^e kcal mol^−1 | koff^surf [2]: 5.3 ^e 10^−3 s^−1 | kon^surf [2]: 3.5 ^e 10^4 M^−1 s^−1 | ΔG°surf [2]: −9.3 ^e kcal mol^−1 | koff^surf [3]: 5.4 ^e 10^−3 s^−1 | kon^surf [3]: 0.9 ^e 10^4 M^−1 s^−1 | ΔG°surf [3]: −8.5 ^e kcal mol^−1 | koff^surf (mixed SAMs χ = 0.05, ref Mrksich et al. [10]): 0.0054 s⁻¹
